Where two headings read alike, the source gives them in different places.
How the values were obtained:
Assay in all cases: Recombinant cathepsin inhibition, gel-based competition with GB123 probe
Format in all cases: biochemical
[1] = target: T1, Recombinant human cathepsin L (Homo sapiens, UniProt P07711)
T1 construct: made in house
Protocol: (§1) In-gel fluorescence analysis was used to detect the residual activity of the cathepsins by applying pan-cathepsin probe GB123 to detect the stable enzyme–probe complex. This approach is used for testing inhibition and selectivity.[37],[41]
(§2) Recombinant human cathepsin L (0.5 μM), cathepsin B (0.5 μM), cathepsin K (0.5 μM), and cathepsin S (0.5 μM) were pretreated with different concentrations of inhibitors (GD compounds, odanacatib) for 1 h in reaction buffer (50 mM acetate, 2 mM dithiothreitol (DTT), and 5 mM MgCl2, pH 5.5) at 37 °C. GB123 (1 μM) was added and incubated with samples for 60 min at 37 °C.[37],[41] The reaction was stopped by the addition of sample buffer 4× (40% glycerol, 0.2 M Tris/HCl pH 6.8, 20% β-mercaptoethanol, 12% SDS, and 0.4 mg/mL bromophenol blue). Samples were then boiled, separated on a 12.5% SDS gel, and scanned for fluorescence by a Typhoon scanner FLA 9500 at excitation and emission wavelengths of 635 and 670 nm for GB123.
(§3) graphs were generated in GraphPad Prism software.

[2] = target: T2, Recombinant human cathepsin K (Homo sapiens, UniProt P43235); conditions: for loss of potency compared to GD20: diastereomers of GD20 with D amino acids
T2 construct: made in house
T2 sequence (P43235 115-329): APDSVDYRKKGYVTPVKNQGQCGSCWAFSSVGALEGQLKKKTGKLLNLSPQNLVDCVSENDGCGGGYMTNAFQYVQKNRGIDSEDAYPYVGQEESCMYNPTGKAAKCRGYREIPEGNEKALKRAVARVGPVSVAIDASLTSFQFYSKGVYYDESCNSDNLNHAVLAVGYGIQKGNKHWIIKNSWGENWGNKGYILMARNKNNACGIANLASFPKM
Protocol: as §1, §2, §3

[3] = target: T3, Recombinant human cathepsin B (Homo sapiens, UniProt P07858)
T3 construct: made in house
Protocol: as §1, §2, §3

[4] = Table S2, three independent competition gel-based experiments, read-out: CTSL (IC50)
[5] = Table S2, three independent competition gel-based experiments, read-out: CTSK (IC50)
[6] = Table S2, three independent competition gel-based experiments, read-out: CTSB (IC50)

T1 sequence (P07711 114-333): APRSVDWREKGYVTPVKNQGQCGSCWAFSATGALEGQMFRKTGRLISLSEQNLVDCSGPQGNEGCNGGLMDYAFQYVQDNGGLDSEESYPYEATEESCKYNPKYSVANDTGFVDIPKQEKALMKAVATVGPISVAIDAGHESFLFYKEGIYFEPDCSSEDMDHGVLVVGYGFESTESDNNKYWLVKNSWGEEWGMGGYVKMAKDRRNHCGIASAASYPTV

SMILES | IC50 [1, 4] | IC50 [2, 5] | IC50 [3, 6] | IC50 ([2]; Figure 1, gel-based GB123 competition, read-out: Activity [μM] CTSK (IC50)) | IC50 ([3]; Figure 1, gel-based GB123 competition, read-out: Activity [μM] CTSB (IC50)) | IC50 ([1]; Figure 1, gel-based GB123 competition, read-out: Activity [μM] CTSL (IC50)) | loss of potency compared to GD20 [2]
Cc1cccc(C)c1C(=O)OCC(=O)[C@H](CCCCN)NC(=O)[C@H](Cc1ccccc1)NC(=O)OCc1ccccc1 [GB111-NH2, reference compound] | 0.25 ± 0.04 µM | 4.4 ± 0.9 µM | 0.4 ± 0.06 µM | – | – | – | –
Cc1cccc(C)c1C(=O)OCC(=O)CNC(=O)[C@H](CC(C)(C)F)N[C@@H](c1ccc(-c2ccc(NC(=O)OC(C)(C)C)cc2)cc1)C(F)(F)F [GD6] | > 5 µM | 1.6 ± 0.35 µM | 1.7 ± 0.35 µM | – | – | – | –
Cc1cccc(C)c1C(=O)OCC(=O)CNC(=O)[C@H](CC(C)C)N[C@@H](c1ccc(-c2ccc(S(C)(=O)=O)cc2)cc1)C(F)(F)F [GD7] | > 5 µM | 0.66 ± 0.01 µM | 3.6 ± 0.03 µM | – | – | – | –
CC(C)C[C@H](N[C@@H](c1ccc(-c2ccc(S(C)(=O)=O)cc2)cc1)C(F)(F)F)C(=O)NCC(=O)COc1c(F)c(F)cc(F)c1F [GD8] | 3.6 ± 0.04 µM | 0.68 ± 0.08 µM | 2.2 ± 0.35 µM | – | – | – | –
CC(C)C[C@H](N[C@@H](c1ccc(-c2ccc(S(C)(=O)=O)cc2)cc1)C(F)(F)F)C(=O)NCC(=O)CSc1c(F)c(F)cc(F)c1F [GD9] | > 5 µM | 0.5 ± 0.05 µM | 5.1 ± 0.55 µM | – | – | – | –
NCCCC[C@H](NC(=O)[C@H](Cc1ccccc1)NC(=O)OCc1ccccc1)C(=O)CSc1c(F)c(F)cc(F)c1F [GD10] | 0.19 ± 0.1 µM | 0.65 ± 0.01 µM | 0.66 ± 0.02 µM | – | – | – | –
Cc1cccc(C)c1C(=O)OCC(=O)[C@H](CCCCN)NC(=O)[C@H](CC(C)C)NC(=O)CNC(=O)OCc1ccccc1 [GD12] | 1.6 ± 0.22 µM | 0.8 ± 0.1 µM | 1 ± 0.13 µM | – | – | – | –
Cc1cccc(C)c1C(=O)OCC(=O)[C@H](CCCCN)NC(=O)[C@@H]1CCCN1C(=O)CNC(=O)OCc1ccccc1 [GD13] | > 5 µM | 2.7 ± 0.35 µM | 4 ± 0.15 µM | 3.6 ± 0.5 µM | 1.95 ± 0.35 µM | – | –
NCCCC[C@H](NC(=O)[C@@H]1CCCN1C(=O)CNC(=O)OCc1ccccc1)C(=O)COc1c(F)c(F)cc(F)c1F [GD14] | > 5 µM | 0.3 ± 0.03 µM | 0.8 ± 0.25 µM | – | – | – | –
NCCCC[C@H](NC(=O)[C@@H]1CCCN1C(=O)CNC(=O)OCc1ccccc1)C(=O)CSc1c(F)c(F)cc(F)c1F [GD15] | 2 ± 0.15 µM | 5.5 ± 1 µM | > 5 µM | – | – | > 5 µM | –
Cc1cccc(C)c1C(=O)OCC(=O)CNC(=O)[C@@H]1CCCN1C(=O)CNC(=O)OCc1ccccc1 [GD16] | > 5 µM | 1.8 ± 0.25 µM | 2.8 ± 0.6 µM | – | – | – | –
O=C(CNC(=O)[C@@H]1CCCN1C(=O)CNC(=O)OCc1ccccc1)CSc1c(F)c(F)cc(F)c1F [GD17] | > 5 µM | 1.2 ± 0.11 µM | > 5 µM | – | – | – | –
CC(C)C[C@H](N[C@@H](c1ccc(-c2ccc(NC(=O)OC(C)(C)C)cc2)cc1)C(F)(F)F)C(=O)NCC(=O)COC(=O)[C@@H]1CCCN1C(=O)[C@H](CC(C)C)NC(=O)OCC1c2ccccc2-c2ccccc21 [GD26] | > 5 µM | 1.4 ± 0.2 µM | 6 ± 1.5 µM | – | – | – | –
CC(C)C[C@H](N[C@@H](c1ccc(-c2ccc(S(C)(=O)=O)cc2)cc1)C(F)(F)F)C(=O)NCC(=O)COC(=O)CNC(=O)OCC1c2ccccc2-c2ccccc21 [GD27] | > 5 µM | 1 ± 0.07 µM | > 5 µM | – | – | – | –
CC(C)C[C@H](NC(=O)OCC1c2ccccc2-c2ccccc21)C(=O)N1CCC[C@H]1C(=O)OCC(=O)CNC(=O)[C@H](CC1CCCCC1)N[C@@H](c1ccc(-c2ccc(S(C)(=O)=O)cc2)cc1)C(F)(F)F [GD28] | > 5 µM | > 5 µM | > 5 µM | – | – | – | –
CC(C)C[C@H](NC(=O)OCC1c2ccccc2-c2ccccc21)C(=O)N1CCC[C@H]1C(=O)OCC(=O)CNC(=O)[C@H](CCCCNC(=O)OC(C)(C)C)N[C@@H](c1ccc(-c2ccc(S(C)(=O)=O)cc2)cc1)C(F)(F)F [GD29] | 1.6 ± 0.5 µM | > 5 µM | > 5 µM | – | – | – | –
CC(C)C[C@H](N[C@@H](c1ccc(-c2ccc(S(=O)(=O)NC(=O)OC(C)(C)C)cc2)cc1)C(F)(F)F)C(=O)NCC(=O)COC(=O)[C@@H]1CCCN1C(=O)[C@H](CC(C)C)NC(=O)OCC1c2ccccc2-c2ccccc21 [GD31] | > 20 µM | 0.9 ± 0.1 µM | 0.24 ± 0.1 µM | – | – | – | –
C#CCNC(=O)[C@H](CC(C)C)N[C@@H](c1ccc(-c2ccc(S(=O)(=O)NC(=O)OC(C)(C)C)cc2)cc1)C(F)(F)F [GD33] | 4.4 ± 0.8 µM | > 20 µM | > 20 µM | – | – | – | –
CC(C)C[C@H](N[C@@H](c1ccc(-c2ccc(CCNC(=O)OC(C)(C)C)cc2)cc1)C(F)(F)F)C(=O)NCC(=O)COC(=O)[C@@H]1CCCN1C(=O)[C@H](CC(C)C)NC(=O)OCC1c2ccccc2-c2ccccc21 [GD34] | > 5 µM | 0.9 ± 0.06 µM | 5 ± 0.1 µM | – | – | – | –
CC(C)C[C@H](N[C@H](c1ccc(-c2ccc(S(C)(=O)=O)cc2)cc1)C(F)(F)F)C(=O)NCC(=O)COC(=O)[C@@H]1CCCN1C(=O)[C@H](CC(C)C)NC(=O)OCC1c2ccccc2-c2ccccc21 [GD35] | – | 3.5 ± 0.5 µM | – | – | – | – | 4–9 times
CC(C)C[C@H](NC(=O)OCC1c2ccccc2-c2ccccc21)C(=O)N1CCC[C@H]1C(=O)OCC(=O)CNC(=O)[C@@H](CC(C)C)N[C@@H](c1ccc(-c2ccc(S(C)(=O)=O)cc2)cc1)C(F)(F)F [GD39] | – | 3.9 ± 0.7 µM | – | – | – | – | 4–9 times
CC(C)C[C@H](NC(=O)OCC1c2ccccc2-c2ccccc21)C(=O)N1CCC[C@H]1C(=O)OCC(=O)CNC(=O)[C@@H](CC(C)C)N[C@H](c1ccc(-c2ccc(S(C)(=O)=O)cc2)cc1)C(F)(F)F [GD40] | – | 3.5 ± 0.9 µM | – | – | – | – | 4–9 times
